Laboratory results taken from patent US20060069132A1, “Azolecarboxamide herbicides” (priority 2004, published 2006).

Legend:
common ragweed = assay: Test C pre-/postemergence herbicide test; assay type: in vivo, Ambrosia elatior; parameters: key to Plant response rating, Ragweed: 0 = no effect, 100 = complete control; conditions: for Ragweed plant response rating: 500 g ai/ha
How it was run: (§1)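 Pre/post spray; non-phytotoxic solvent + surfactant. Post-timing 1–4 leaves, 2–18 cm. Read-out: visual % control vs untreated, day 12–14, greenhouse.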

morningglory = assay: Test A pre-/postemergence herbicide test; assay type: in vivo, Ipomoea spp.
How it was run: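 Greenhouse injury scoring (0–100, complete control = 100) at approximately ten days follows simultaneous pre- and postemergence application. Soil received a directed spray after seeding; seedlings of 2–10 cm at the one- to two-leaf stage were sprayed to runoff.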

kochia = assay: Test C pre-/postemergence herbicide test; assay type: in vivo, Kochia scoparia; conditions: for Kochia plant response rating: Preemergence, 500 g ai/ha
How it was run: as §1

wild oat = assay: Test B postemergence herbicide test; assay type: in vivo, Avena fatua; conditions: postemergence, visual rating, scale 0 (no effect) to 100 (complete control)
How it was run: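 Scale 0–100: zero equals no visible effect, 100 complete control, judged by eye relative to controls. Timing: 13 to 15 days in greenhouse post-treatment. Growth stage at spraying: two leaves (paddy) or one to four leaves, 2–18 cm (postemergence).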

goosegrass = assay: Test C pre-/postemergence herbicide test; assay type: in vivo, Eleusine indica; conditions: for Goosegrass plant response rating: 500 g ai/ha
How it was run: as §1

pigweed [1] = assay: Test C pre-/postemergence herbicide test; assay type: in vivo, Amaranthus retroflexus; conditions: for Pigweed plant response rating: 500 g ai/ha
How it was run: as §1

large crabgrass = assay: Test C pre-/postemergence herbicide test; assay type: in vivo, Digitaria sanguinalis; conditions: for Crabgrass, Large plant response rating: 500 g ai/ha
How it was run: as §1

pigweed [2] = assay: Test B pre-/postemergence herbicide test; assay type: in vivo, Amaranthus retroflexus; conditions: for Plant response rating, Pigweed: preemergence; for Pigweed plant response rating: postemergence, visual rating, scale 0 (no effect) to 100 (complete control)
How it was run: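 Flooded paddy rice and barnyardgrass were treated at the 2-leaf stage; upland plantings received compound either on sown seed or on 1- to 4-leaf seedlings. All were kept 13–15 days in a greenhouse and scored visually, 0–100, relative to untreated plants.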

lambsquarters = assay: Test C pre-/postemergence herbicide test; assay type: in vivo, Chenopodium album; conditions: for Lambsquarters plant response rating: 500 g ai/ha
How it was run: as §1

[3] = 125 g ai/ha, scale 0 (no effect) to 100 (complete control), visual, 12 to 14 days, preemergence
[4] = Preemergence, scale 0 to 100, 0 no effect, 100 complete control
[5] = Postemergence, 500 g ai/ha, 0 to 100 scale, 0 no effect, 100 complete control
[6] = Postemergence, 2000 g ai/ha, 0 to 100 scale, 0 no effect, 100 complete control
[7] = Preemergence, 500 g ai/ha, visual rating, 0 to 100 scale (0 no effect, 100 complete control)
[8] = Preemergence, 2000 g ai/ha, visual rating, 0 to 100 scale (0 no effect, 100 complete control)
[9] = scale 0 to 100, 0 no effect, 100 complete control
[10] = 500 g ai/ha, visual rating 0-100, 0 no effect, 100 complete control
[11] = 125 g ai/ha, 0 to 100 scale, 0 is no effect, 100 is complete control
[12] = Postemergence, 250 g ai/ha, scale 0 to 100, 0 no effect, 100 complete control
[13] = postemergence, 125 g ai/ha, scale 0 to 100
[14] = postemergence, 62 g ai/ha, scale 0 to 100

SMILES: CCN(CC)C(=O)c1cccc(NC(=O)c2cc(C(C)(C)C)nn2CC)n1 [Compound 145]
- Plant response rating (0 = no effect, 100 = complete control), Ragweed (common ragweed; 62 g ai/ha, preemergence): 0
- Plant response rating, Ragweed (common ragweed; [3]): 0
- Ragweed plant response rating (common ragweed; [4]): 20
- Morningglory plant response rating (morningglory; [5]): 15
- Plant response rating, Morningglory (morningglory; [6]): 30
- Morningglory plant response rating (morningglory; [7]): 20
- Morningglory plant response rating (morningglory; [8]): 25
- Plant response rating (0 = no effect, 100 = complete control), Kochia (kochia; 62 g ai/ha, preemergence): 20
- Plant response rating, Kochia (kochia; [3]): 60
- Kochia plant response rating (kochia; [9]): 80
- Oat, Wild plant response rating (wild oat; 125 g ai/ha): 10
- Oat, Wild plant response rating (wild oat; 500 g ai/ha): 30
- Plant response rating (0 = no effect, 100 = complete control), Goosegrass (goosegrass; 62 g ai/ha, preemergence): 50
- Plant response rating, Goosegrass (goosegrass; [3]): 70
- Goosegrass plant response rating (goosegrass; [4]): 80
- Plant response rating (0 = no effect, 100 = complete control), Pigweed (pigweed [1]; 62 g ai/ha, preemergence): 85
- Plant response rating, Pigweed (pigweed [1]; [3]): 90
- Pigweed plant response rating (pigweed [1]; [4]): 95
- Plant response rating, Crabgrass, Large (large crabgrass; [3]): 50
- Plant response rating, Crabgrass, Large (large crabgrass; 250 g ai/ha, scale 0 to 100 (0 no effect, 100 complete control), visual, 12 to 14 days, preemergence): 80
- Crabgrass, Large plant response rating (large crabgrass; [4]): 80
- Plant response rating, Pigweed (pigweed [2]; [10]): 100
- Pigweed plant response rating (pigweed [2]; 125 g ai/ha): 90
- Pigweed plant response rating (pigweed [2]; 500 g ai/ha): 100
- Plant response rating, Pigweed (pigweed [2]; [11]): 100
- Plant response rating (0 = no effect, 100 = complete control), Lambsquarters (lambsquarters; 62 g ai/ha, preemergence): 20
- Plant response rating, Lambsquarters (lambsquarters; [3]): 60
- Lambsquarters plant response rating (lambsquarters; [4]): 100

SMILES: CCn1nc(C(C)(C)C)cc1C(=O)Nc1cccc(C(=O)NC2CC2)n1 [Compound 146]
- Plant response rating (0 = no effect, 100 = complete control), Ragweed (common ragweed; 62 g ai/ha, preemergence): 0
- Plant response rating, Ragweed (common ragweed; [3]): 0
- Ragweed plant response rating (common ragweed; Postemergence, scale 0 to 100): 0
- Plant response rating, Ragweed (common ragweed; [12]): 0
- Ragweed plant response rating (common ragweed; [4]): 70
- Plant response rating, Ragweed (common ragweed; [13]): 0
- Plant response rating, Ragweed (common ragweed; [14]): 0
- Morningglory plant response rating (morningglory; [5]): 5
- Plant response rating, Morningglory (morningglory; [6]): 0
- Morningglory plant response rating (morningglory; [7]): 5
- Morningglory plant response rating (morningglory; [8]): 50
- Plant response rating (0 = no effect, 100 = complete control), Kochia (kochia; 62 g ai/ha, preemergence): 50
- Plant response rating, Kochia (kochia; [3]): 50
- Plant response rating, Kochia (kochia; [12]): 20
- Kochia plant response rating (kochia; [9]): 100
- Plant response rating, Kochia (kochia; [14]): 5
- Oat, Wild plant response rating (wild oat; 125 g ai/ha): 10
- Oat, Wild plant response rating (wild oat; 500 g ai/ha): 20
- Plant response rating (0 = no effect, 100 = complete control), Goosegrass (goosegrass; 62 g ai/ha, preemergence): 0
- Plant response rating, Goosegrass (goosegrass; [3]): 0
- Goosegrass plant response rating (goosegrass; Postemergence, scale 0 to 100): 0
- Plant response rating, Goosegrass (goosegrass; [12]): 0
- Goosegrass plant response rating (goosegrass; [4]): 60
- Plant response rating, Goosegrass (goosegrass; [13]): 0
- Plant response rating, Goosegrass (goosegrass; [14]): 0
- Plant response rating (0 = no effect, 100 = complete control), Pigweed (pigweed [1]; 62 g ai/ha, preemergence): 80
- Plant response rating, Pigweed (pigweed [1]; [3]): 95
- Pigweed plant response rating (pigweed [1]; Postemergence, scale 0 to 100): 100
- Plant response rating, Pigweed (pigweed [1]; [12]): 100
- Pigweed plant response rating (pigweed [1]; [4]): 100
- Plant response rating, Pigweed (pigweed [1]; [13]): 90
- Plant response rating, Pigweed (pigweed [1]; [14]): 80
- Plant response rating (0 = no effect, 100 = complete control), Crabgrass, Large (large crabgrass; 62 g ai/ha, preemergence): 20
- Crabgrass, Large plant response rating (large crabgrass; Postemergence, scale 0 to 100): 85
- Plant response rating, Crabgrass, Large (large crabgrass; [12]): 50
- Crabgrass, Large plant response rating (large crabgrass; [4]): 70
- Plant response rating, Crabgrass, Large (large crabgrass; [13]): 0
- Plant response rating, Crabgrass, Large (large crabgrass; [14]): 0
- Plant response rating, Pigweed (pigweed [2]; [10]): 100
- Pigweed plant response rating (pigweed [2]; 125 g ai/ha): 80
- Pigweed plant response rating (pigweed [2]; 500 g ai/ha): 90
- Plant response rating, Pigweed (pigweed [2]; [11]): 100
- Plant response rating (0 = no effect, 100 = complete control), Lambsquarters (lambsquarters; 62 g ai/ha, preemergence): 85
- Plant response rating, Lambsquarters (lambsquarters; [3]): 90
- Lambsquarters plant response rating (lambsquarters; Postemergence, scale 0 to 100): 100
- Plant response rating, Lambsquarters (lambsquarters; [12]): 100
- Lambsquarters plant response rating (lambsquarters; [4]): 100
- Plant response rating, Lambsquarters (lambsquarters; [13]): 80
- Plant response rating, Lambsquarters (lambsquarters; [14]): 40
